# From ChEMBL document CHEMBL5518188, “Discovery of 4-amino-1,6-dihydro-7H-pyrrolo[2,3-d]pyridazin-7-one derivatives as potential receptor-interacting serine/threonine-protein kinase 1 (RIPK1) inhibitors” (Eur J Med Chem, 2024)
# Active and inactive are the calls of the source. The rule behind the calls is not given here.
# What was measured:
# [1] = molecular target: T1, Mixed lineage kinase domain-like protein (Homo sapiens) (UniProt Q8NB16); settings: HT-29, dose 30.0 nM, time 6.0 hrs
# T1 sequence (whole entry): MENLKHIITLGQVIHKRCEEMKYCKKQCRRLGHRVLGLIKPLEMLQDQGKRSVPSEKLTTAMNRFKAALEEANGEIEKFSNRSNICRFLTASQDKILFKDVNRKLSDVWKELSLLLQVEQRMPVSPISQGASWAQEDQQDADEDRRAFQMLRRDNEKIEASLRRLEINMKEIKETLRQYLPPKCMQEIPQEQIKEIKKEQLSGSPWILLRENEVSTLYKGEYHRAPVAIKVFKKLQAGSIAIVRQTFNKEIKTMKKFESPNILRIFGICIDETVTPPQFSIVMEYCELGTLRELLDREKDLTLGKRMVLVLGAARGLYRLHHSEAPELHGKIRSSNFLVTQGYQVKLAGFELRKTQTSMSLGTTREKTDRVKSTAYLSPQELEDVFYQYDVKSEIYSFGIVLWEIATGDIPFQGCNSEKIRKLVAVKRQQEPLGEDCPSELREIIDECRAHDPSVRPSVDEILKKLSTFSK
# [2] = molecular target: T2, Receptor-interacting serine/threonine-protein kinase 1 (Homo sapiens, UniProt Q13546); experiment: Inhibition of RIPK1 (unknown origin) in presence of ATP by kinaseProfiler assay
# T2 sequence (Q13546 whole entry): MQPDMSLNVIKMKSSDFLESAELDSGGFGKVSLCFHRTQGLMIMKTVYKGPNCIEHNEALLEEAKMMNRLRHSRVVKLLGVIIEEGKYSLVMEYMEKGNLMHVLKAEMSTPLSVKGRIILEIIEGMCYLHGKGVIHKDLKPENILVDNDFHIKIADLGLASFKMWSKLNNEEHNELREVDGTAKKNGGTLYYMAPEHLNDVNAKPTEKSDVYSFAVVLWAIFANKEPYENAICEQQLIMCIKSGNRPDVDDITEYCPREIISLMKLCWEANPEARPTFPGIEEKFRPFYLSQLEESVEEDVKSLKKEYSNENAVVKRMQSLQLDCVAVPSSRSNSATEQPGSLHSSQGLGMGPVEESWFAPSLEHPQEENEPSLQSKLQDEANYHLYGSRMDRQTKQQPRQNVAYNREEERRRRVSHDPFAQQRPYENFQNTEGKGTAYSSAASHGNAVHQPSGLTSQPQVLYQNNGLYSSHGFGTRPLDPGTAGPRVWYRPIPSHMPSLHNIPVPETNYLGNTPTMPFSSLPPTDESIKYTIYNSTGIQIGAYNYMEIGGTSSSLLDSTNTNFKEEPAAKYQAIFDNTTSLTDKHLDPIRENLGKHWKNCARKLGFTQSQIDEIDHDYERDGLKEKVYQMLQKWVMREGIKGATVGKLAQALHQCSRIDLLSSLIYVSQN
# [3] = molecular target: T3, Receptor-interacting serine/threonine-protein kinase 3 (Homo sapiens, UniProt Q9Y572); settings: HT-29, dose 300.0 nM, time <= 6.0 hrs, TDE = time-dependent effect
# Target sequence in this assay (Q9Y572 whole entry, looked up, the tested form may be a part): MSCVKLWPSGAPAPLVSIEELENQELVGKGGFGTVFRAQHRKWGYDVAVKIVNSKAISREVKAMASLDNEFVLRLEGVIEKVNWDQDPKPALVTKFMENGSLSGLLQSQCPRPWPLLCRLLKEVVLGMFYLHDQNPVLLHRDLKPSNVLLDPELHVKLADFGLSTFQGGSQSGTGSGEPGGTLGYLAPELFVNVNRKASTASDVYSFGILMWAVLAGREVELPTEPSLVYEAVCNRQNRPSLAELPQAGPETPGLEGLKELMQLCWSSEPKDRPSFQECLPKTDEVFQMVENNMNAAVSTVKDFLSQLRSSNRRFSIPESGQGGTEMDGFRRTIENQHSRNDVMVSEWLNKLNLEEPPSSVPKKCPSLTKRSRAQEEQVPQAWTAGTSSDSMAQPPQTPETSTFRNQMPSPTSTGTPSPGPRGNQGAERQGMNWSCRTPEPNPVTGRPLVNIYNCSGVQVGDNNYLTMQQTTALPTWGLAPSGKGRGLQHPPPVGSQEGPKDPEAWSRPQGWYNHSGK
# Description: Inhibition of RIPK3 phosphorylation in TSZ-induced human HT-29 cells at 300 nM by Western blot analysis
# [4] = molecular target: T4, Mixed lineage kinase domain-like protein (Homo sapiens, UniProt Q8NB16); experiment: Binding affinity to MLKL (unknown origin) assessed as dissociation constant
# T4 sequence (Q8NB16 whole entry): T1 sequence (whole entry)
# [5] = Cmax in BALB/c mouse at 10 mg/kg, iv; type: ADME, organism-based; settings: in vivo
# [6] = molecular target: BDNF/NT-3 growth factors receptor (Homo sapiens) (UniProt Q16620); experiment: Inhibition of TRKB (unknown origin)
# [7] = molecular target: T3, Receptor-interacting serine/threonine-protein kinase 3; experiment: Binding affinity to RIPK3 (unknown origin) assessed as dissociation constant
# Target sequence in this assay (Q9Y572 whole entry, the tested form may be a part): as the sequence (Q9Y572 whole entry, looked up, the tested form may be a part) above
# [8] = AUC (0 to t) in BALB/c mouse at 10 mg/kg, po; type: ADME, organism-based; settings: BALB/c, in vivo
# Mus musculus = experiment: In vivo anti-necrotptic activity in SIRS mouse model assessed as protection from body temperature loss at 10 mg/kg, po measured upto 6 hrs; type: functional, organism-based
# [9] = molecular target: T1, Mixed lineage kinase domain-like protein (Homo sapiens); settings: HT-29, dose 300.0 nM, time <= 6.0 hrs, TDE = time-dependent effect
# Description: Inhibition of MLKL phosphorylation in TSZ-induced human HT-29 cells at 300 nM by Western blot analysis
# [10] = molecular target: T5, Receptor-interacting serine/threonine-protein kinase 1 (Homo sapiens) (UniProt Q13546); settings: HT-29, dose 3.0 nM, time 6.0 hrs
# T5 sequence (whole entry): T2 sequence (Q13546 whole entry)
# [11] = Clearance in BALB/c mouse at 10 mg/kg, po; type: ADME, organism-based; settings: BALB/c, in vivo
# [12] = Apparent volume of distribution in BALB/c mouse at 10 mg/kg, po; type: ADME, organism-based; settings: in vivo
# BDNF/NT-3 growth factors receptor (Homo sapiens), sequence (Q16620 32-822 limits assumed): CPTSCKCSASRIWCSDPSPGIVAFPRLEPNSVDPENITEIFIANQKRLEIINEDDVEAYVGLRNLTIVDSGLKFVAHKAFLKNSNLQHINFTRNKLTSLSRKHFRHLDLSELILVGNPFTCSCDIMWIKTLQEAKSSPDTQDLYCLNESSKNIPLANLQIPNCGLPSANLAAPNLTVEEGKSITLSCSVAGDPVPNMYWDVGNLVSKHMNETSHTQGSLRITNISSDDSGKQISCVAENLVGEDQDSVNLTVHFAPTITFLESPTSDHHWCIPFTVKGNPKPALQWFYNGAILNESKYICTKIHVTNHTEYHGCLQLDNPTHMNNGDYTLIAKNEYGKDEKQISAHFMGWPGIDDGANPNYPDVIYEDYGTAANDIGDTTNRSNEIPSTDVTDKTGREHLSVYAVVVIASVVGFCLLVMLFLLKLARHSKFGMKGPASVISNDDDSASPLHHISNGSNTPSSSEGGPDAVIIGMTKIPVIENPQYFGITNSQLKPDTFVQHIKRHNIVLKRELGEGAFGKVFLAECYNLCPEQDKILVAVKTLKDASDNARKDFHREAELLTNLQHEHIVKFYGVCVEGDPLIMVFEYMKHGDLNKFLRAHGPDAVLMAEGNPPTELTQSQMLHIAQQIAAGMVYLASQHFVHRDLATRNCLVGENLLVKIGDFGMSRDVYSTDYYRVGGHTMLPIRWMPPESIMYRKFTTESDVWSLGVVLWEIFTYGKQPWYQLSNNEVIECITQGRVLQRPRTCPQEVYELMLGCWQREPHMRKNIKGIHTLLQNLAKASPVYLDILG
smiles,measurement,setting,value
CC1(Cn2cc(-c3ccc4c(c3)CCN4C(=O)Cc3cccc(OC(F)(F)F)c3)c3c(N)n[nH]c(=O)c32)COC1,inhibition,[1],Dose-Dependent Effect
same,IC50,[2],0.0598 µM
same,inhibition,[3],Tde
same,Kd,[4],> 30 µM
same,Cmax,[5],8.04 µg/mL
same,inhibition,[6],Active
same,Kd,[7],1.7 µM
same,AUC(0-t),[8],9.64 µg·h/mL
same,Activity,Mus musculus,Active
same,inhibition,[9],Tde
same,inhibition,[10],Dose-Dependent Effect
same,CL/F,[11],1.04 L/h/kg
same,Vz,[12],1.24 L/kg
